The values that follow come from US9090632B2, “Bicyclic oxazole and thiazole compounds and their use as allosteric modulators of mGluR5 receptors” (Vanderbilt University, priority 2010, dated 2015).

In one data set the target is human mGluR5 (Homo sapiens, UniProt P41594). The experiment in a line: Cell-based functional Ca2+ mobilization assay, potentiation of glutamate EC20 response (H10H cell-line). The conditions noted are these: H10H cell-line expressing recombinant human mGluR5; for Emax / Emax (%): in presence of glutamate EC20, normalized to maximal glutamate response; for EC50 / pEC50: potentiation in presence of glutamate EC20. As for the experimental part: Human embryonic kidney (HEK) cells transfected with rat mGluR5 were plated in clear bottom assay plates for assay in a Functional Drug Screening System (FDSS). In the alternative assay, HEK cells transfected with human mGluR5 were plated for assay in the FDSS. In some cases the HEK cells transfected with human mGluR5 are the H10H cell line. Alternatively, the HEK cells transfected with human mGluR5 are the H12H cell line. […] The cells were loaded with a Ca^2+-sensitive fluorescent dye (e.g., Fluo-4), and the plates were washed and placed in the FDSS instrument. After establishment of a fluorescence baseline for about three seconds, the compounds of the present invention were added to the cells, and the response in cells was measured. Five minutes later, an mGluR5 agonist (e.g., glutamate, 3,5-dihydroxyphenylglycine, or quisqualate) was added to the cells, and the response of the cells was measured. Potentiation of the agonist response of mGluR5 by the compounds in the present invention was observed as an increase in response to non-maximal concentrations of agonist (here, glutamate) in the presence of compound compared to the response to agonist in the absence of compound.
Sequence of human mGluR5 (P41594 21-1180 isoform P41594-2 limits assumed): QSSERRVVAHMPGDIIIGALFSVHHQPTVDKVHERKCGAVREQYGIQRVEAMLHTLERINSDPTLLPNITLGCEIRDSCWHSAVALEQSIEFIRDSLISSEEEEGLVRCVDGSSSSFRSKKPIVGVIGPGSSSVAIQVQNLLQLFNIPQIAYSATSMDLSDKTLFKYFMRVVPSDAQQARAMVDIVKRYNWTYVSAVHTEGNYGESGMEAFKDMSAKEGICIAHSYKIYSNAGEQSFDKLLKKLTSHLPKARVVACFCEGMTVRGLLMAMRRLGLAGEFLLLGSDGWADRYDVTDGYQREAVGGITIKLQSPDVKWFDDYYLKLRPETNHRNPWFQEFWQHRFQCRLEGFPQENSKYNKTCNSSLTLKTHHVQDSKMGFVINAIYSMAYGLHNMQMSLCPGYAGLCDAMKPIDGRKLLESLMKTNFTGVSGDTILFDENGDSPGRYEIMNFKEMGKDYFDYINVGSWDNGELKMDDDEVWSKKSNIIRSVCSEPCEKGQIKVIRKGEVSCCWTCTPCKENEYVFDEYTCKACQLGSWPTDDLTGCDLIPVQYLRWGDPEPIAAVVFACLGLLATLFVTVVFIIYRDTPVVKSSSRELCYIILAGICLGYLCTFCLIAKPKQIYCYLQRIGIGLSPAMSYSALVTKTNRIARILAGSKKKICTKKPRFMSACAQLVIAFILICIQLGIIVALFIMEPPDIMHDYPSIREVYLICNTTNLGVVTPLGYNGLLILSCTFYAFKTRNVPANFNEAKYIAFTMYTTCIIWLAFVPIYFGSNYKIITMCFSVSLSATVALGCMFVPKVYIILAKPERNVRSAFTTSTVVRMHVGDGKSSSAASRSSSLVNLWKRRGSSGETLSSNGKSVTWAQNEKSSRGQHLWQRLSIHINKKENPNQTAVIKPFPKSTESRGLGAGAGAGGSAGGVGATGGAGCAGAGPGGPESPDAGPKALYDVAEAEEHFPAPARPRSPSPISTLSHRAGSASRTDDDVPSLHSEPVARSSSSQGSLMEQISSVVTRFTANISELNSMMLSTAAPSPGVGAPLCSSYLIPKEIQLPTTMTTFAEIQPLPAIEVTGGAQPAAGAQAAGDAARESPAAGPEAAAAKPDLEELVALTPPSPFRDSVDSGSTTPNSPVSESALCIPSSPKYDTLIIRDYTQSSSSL
The above described assay can be operated in two modes. In the first mode, a range of concentrations of the present compounds were added to cells, followed by a single fixed concentration of agonist. If a compound acted as a potentiator, an EC50 value for potentiation and a maximum extent of potentiation by the compound at this concentration of agonist was determined by non-linear curve fitting. In the second mode, several fixed concentrations of the present compounds were added to various wells on a plate, followed by a range of concentrations of agonist for each concentration of present compound; the EC50 values for the agonist at each concentration of compound were determined by non-linear curve fitting. A decrease in the EC50 value of the agonist with increasing concentrations of the present compounds (a leftward shift of the agonist concentration-response curve) is an indication of the degree of mGluR5 potentiation at a given concentration of the present compound. An increase in the EC50 value of the agonist with increasing concentrations of the present compounds (a rightward shift of the agonist concentration-response curve) is an indication of the degree of mGluR5 antagonism at a given concentration of the present compound. The second mode also indicates whether the present compounds also affect the maximum response to mGluR5 to agonists.
Human mGluR5a cDNA in pCMV6-XL6 mammalian expression plasmid was purchased from OriGene Technologies, Inc. (catalogue number SC326357) and subcloned into pcDNA3.1(−). Human embryonic kidney (HEK) 293A cells were then transfected with human mGluR5a pcDNA3.1(−) using LipofectAmine 2000 (Invitrogen) and monoclones were selected and tested for functional response using a Ca^2+ mobilization assay. Monoclones were named for the species (“H” for human) plus the location on the plate (e.g. “10H”).
HEK cells transfected with the human mGluR5a receptor were plated at 15,000 cells/well in clear-bottomed poly-D-lysine-coated assay plates (BD Falcon) in glutamate-glutamine-free growth medium and incubated overnight at 37° C. and 5% CO2. The cell-line used to obtain the data reported herein was the H10H cell-line expressing the human mGluR5 receptor. Although the H10H cell-line was used to obtain the data shown herein, the H12H cell-line expressing the human mGluR5 receptor can also be used in these assays. The following day, the growth medium was removed and the cells were washed with assay buffer containing 1× Hank's balanced salt solution (Invitrogen, Carlsbad, Calif.), 20 mM HEPES, 2.5 mM probenecid, pH 7.4 and left with 20 μL of this reagent. Following this step, the cells were loaded with calcium indicator dye, fluo-4 AM, to a final concentration of 2 μM and incubated for 40-45 min at 37° C. […]
On the technique in general: Calcium flux is commonly read through the fluorescence of an indicator in the cells.

The term melting point denotes the temperature, or range, at which the solid turns liquid. As usually defined, the Emax is the size of the effect at its maximum, as opposed to the concentration needed. For orientation: EC50 means the concentration giving half of the maximal effect. The compound `O=C(c1ccccc1F)N1CCc2nc(COc3ccccc3)sc2C1` [Example B5, 5-[(2-fluorophenyl)carbonyl]-2-(phenoxymethyl)-4,5,6,7-tetrahydro[1,3]thiazolo[5,4-c]pyridine] displayed a melting point of 124.1 to 125.3 °C. For the same compound, at human mGluR5, the Emax was 64% and the EC50 is 0.871 µM.
`O=C(c1cccc(F)c1)N1CCc2nc(COc3ccccc3)oc2C1` [Example B7, 5-[(3-fluorophenyl)carbonyl]-2-(phenoxymethyl)-4,5,6,7-tetrahydro[1,3]oxazolo[5,4-c]pyridine] yielded a melting point of 66 °C. At human mGluR5, the Emax stood at 80% and the EC50 was 0.112 µM.
On to `O=C(c1ccccc1)N1CCc2nc(COc3cccc(F)c3)oc2C1` [Example B26], for which the melting point amounted to 204.7 °C. Besides, on human mGluR5, the Emax amounted to 80% and the EC50 is 0.251 µM.
With `O=C(c1cccc(F)c1)N1CCc2nc(COc3cccc(F)c3)oc2C1` [Example B27], the melting point came out at 74.7 °C. At human mGluR5, the Emax was found to be 76% and the concentration for a half-maximal effect (EC50) was 0.186 µM.
The corresponding values for `O=C(c1cc(F)cc(F)c1)N1CCc2nc(COc3cccc(F)c3)oc2C1` [Example B30] are 70 °C, 44% and 0.148 µM.
For the compound `O=C(N1CCc2nc(COc3ccccc3)oc2C1)C(F)(F)F` [Example B34, 2-(phenoxymethyl)-5-(trifluoroacetyl)-4,5,6,7-tetrahydro[1,3]oxazolo[5,4-c]pyridine], the melting point was found to be 71.8 °C. In addition, at human mGluR5, the maximum response (Emax) came out at 10% and the EC50 is 0.891 µM.
`O=C(c1ccc(F)cc1)N1CCc2nc(COc3ccc(O)cc3)oc2C1` [Example B35, 4-({5-[(4-fluorophenyl)carbonyl]-4,5,6,7-tetrahydro[1,3]oxazolo[5,4-c]pyridin-2-yl}methoxy)phenol] came in with a melting point of 137.4 °C. Also, at human mGluR5, the Emax came to 57% and the half-maximal effective concentration (EC50) was over 10 µM.
In the case of `O=C(c1ccc(F)cn1)N1CCc2nc(COc3ccccc3)oc2C1` [Example B40], the melting point was 113.1 °C. For the same compound, on human mGluR5, the Emax amounted to 67% and the half-maximal effective concentration (EC50) is 2.95 µM.
Taken in the same sequence, the figures for `N#Cc1cccc(C(=O)N2CCc3nc(COc4ccccc4)oc3C2)c1` [Example B43] were 130 °C, 64.5% and 0.295 µM.
The compound `N#Cc1ccc(C(=O)N2CCc3nc(COc4ccccc4)oc3C2)cc1` [Example B49] displayed a melting point of 132.2 °C. On human mGluR5, the maximum response (Emax) amounted to 58% and the EC50 is 3.09 µM.
The corresponding values for `O=C(c1cncc(F)c1)N1CCc2nc(COc3ccccc3)oc2C1` [Example B65] are 98.3 °C, 49% and 3.72 µM.
With `O=C(c1ccc(F)cc1)N1CCc2nc(COc3ccccc3C(F)(F)F)oc2C1` [Example B130], on human mGluR5, the Emax amounted to 22% and the concentration giving a half-maximal response (EC50) was over 30.2 µM.
In the case of `O=C(c1ccc(F)cc1)N1CCc2nc(CCc3ccccc3)oc2C1` [Example B131, 5-[(4-fluorophenyl)carbonyl]-2-(2-phenylethyl)-4,5,6,7-tetrahydro[1,3]oxazolo[5,4-c]pyridine], on human mGluR5, the Emax stood at 24% and the EC50 is over 30.2 µM.
As for `Cc1ccc(C(=O)N2CCc3nc(COc4ccccc4)oc3C2)cn1` [Example B132], on human mGluR5, the maximum response (Emax) stood at 49% and the EC50 is over 10 µM.
Regarding `Cc1cccc(OCc2nc3c(o2)CN(C(=O)c2ccc(F)cc2)CC3)n1` [Example B133], at human mGluR5, the Emax was found to be 32% and the EC50 was over 10 µM.
Consider `O=C(Cc1ccc(F)cc1)N1CCc2nc(COc3ccccc3)oc2C1` [Example B134], for which, on human mGluR5, the Emax was 61% and the EC50 was 1.2 µM.
Take `Cc1ncc(C(=O)N2CCc3nc(COc4ccccc4)oc3C2)cn1` [Example B135]: at human mGluR5, the Emax was found to be 36% and the EC50 is over 10 µM.
The pEC50 is the negative decadic logarithm of the EC50, by convention in mol/L. Turning to `N#Cc1cc(F)cc(OCc2nc3c(o2)CN(C(=O)c2ccc(F)cc2)CC3)c1` [Example B136], at human mGluR5, the “Emax (%)” value came out at 45% and the pEC50 is reported as under 5.
The corresponding values for `N#Cc1cc(Br)cc(OCc2nc3c(o2)CN(C(=O)c2ccc(F)cc2)CC3)c1` [Example B137] are 24% and under 4.52.
As for `COCC(=O)N1CCc2nc(COc3ccccc3)oc2C1` [Example B138], on human mGluR5, the “Emax (%)” value turned out to be 27% and the pEC50 is on record as under 4.52.
As for `O=C(c1ccc(=O)[nH]c1)N1CCc2nc(COc3ccccc3)oc2C1` [Example B139], at human mGluR5, the Emax was 10% and the EC50 is over 30.2 µM.
Turning to `CC(C)(C)OC(=O)NC(C(=O)N1CCc2nc(COc3ccccc3)oc2C1)C(C)(C)C` (stereo not shown) [Example B140], at human mGluR5, the “Emax (%)” value stood at 58% and the pEC50 is on record as 5.77.
With `CC(C)(C)C(=O)N1CCc2nc(COc3ccccc3)oc2C1` [Example B142], the “mGluR5 activity type (footnote)” value on human mGluR5 is reported as “**The indicated compound is a mGluR5 antagonist”.
Consider `O=C(c1n[nH]c2ccncc12)N1CCc2nc(COc3ccccc3)oc2C1` [Example B143], for which, at human mGluR5, the Emax came to 68% and the pEC50 is 5.85.
The corresponding values for `O=C(c1n[nH]c2cccnc12)N1CCc2nc(COc3ccccc3)oc2C1` [Example B144] are 39% and over 5.
For `O=C(c1c[nH]c2cccnc12)N1CCc2nc(COc3ccccc3)oc2C1` [Example B145], on human mGluR5, the Emax came out at 50% and the EC50 is over 10 µM.
The corresponding values for `O=C(c1coc2ccccc12)N1CCc2nc(COc3ccccc3)oc2C1` [Example B146] are 61% and 0.407 µM.
As to `O=C(c1n[nH]c2ncccc12)N1CCc2nc(COc3ccccc3)oc2C1` [Example B147], at human mGluR5, the Emax came out at 74% and the concentration for a half-maximal effect (EC50) is 0.363 µM.
Take `O=C(c1cnccn1)N1CCc2nc(COc3ccccc3)oc2C1` [Example B148]: on human mGluR5, the “Emax (%)” value is listed as 43% and the pEC50 is reported as under 5.
`O=C(c1ccc(F)cc1)N1CCc2nc(COc3cnccn3)oc2C1` [Example B152]: on human mGluR5, the Emax turned out to be 36% and the concentration giving a half-maximal response (EC50) was over 10 µM.
The corresponding values for `O=C(c1ncc[nH]1)N1CCc2nc(COc3ccccc3)oc2C1` [Example B153] are 32% and over 30.2 µM.
`O=C(c1c[nH]cn1)N1CCc2nc(COc3ccccc3)oc2C1` [Example B154]: at human mGluR5, the Emax is 26% and the EC50 was over 30.2 µM.
With `O=C(Cc1c[nH]cn1)N1CCc2nc(COc3ccccc3)oc2C1.O=C(O)C(F)(F)F` [Example B155], on human mGluR5, the “Emax (%)” value came out at 30% and the pEC50 is under 4.52.
As to `Cc1cc(C(=O)N2CCc3nc(COc4ccccc4)oc3C2)no1` [Example B157], at human mGluR5, the “Emax (%)” value was 45% and the pEC50 is under 5.
As for `Cn1cncc1C(=O)N1CCc2nc(COc3ccccc3)oc2C1` [Example B158], at human mGluR5, the Emax turned out to be 27% and the EC50 is over 30.2 µM.
Turning to `O=C(c1nccs1)N1CCc2nc(COc3ccccc3)oc2C1` [Example B159], on human mGluR5, the “Emax (%)” value is 23% and the pEC50 is recorded as under 4.52.
In the case of `O=C(c1ncccn1)N1CCc2nc(COc3ccccc3)oc2C1` [Example B160], on human mGluR5, the “Emax (%)” value is reported as 16% and the pEC50 was under 4.52.
For the compound `Cc1nc(C(=O)N2CCc3nc(COc4ccccc4)oc3C2)no1` [Example B161], at human mGluR5, the Emax was 20% and the EC50 is over 10 µM.
The corresponding values for `O=C(c1cccnn1)N1CCc2nc(COc3ccccc3)oc2C1` [Example B162] are 17% and over 30.2 µM.
